From the NIST ThermoML archive (doi:10.1021/je100353j)
± gives the expanded uncertainty stated by the source.

Experiment: xn = mol fraction of the nth substance listed
Conditions: Liquid

COC(=O)OC [dimethyl carbonate] + C1CCCCC1
mass density [kg/m3]
Conditions	x1 = 0.1	x1 = 0.2	x1 = 0.3	x1 = 0.4	x1 = 0.5	x1 = 0.6	x1 = 0.7	x1 = 0.8	x1 = 0.9	x1 = 1
293.15 K, 100 kPa	797.9 ± 0.5	818.3 ± 0.5	842.3 ± 0.5	866 ± 0.5	893.7 ± 0.5	923.6 ± 0.5	957.5 ± 0.4	991 ± 0.5	1030.4 ± 0.4	1069.8 ± 0.4
293.15 K, 5000 kPa	802.2 ± 0.7	822.7 ± 0.6	846.9 ± 0.6	870.7 ± 0.6	898.5 ± 0.5	928.4 ± 0.5	962.3 ± 0.4	995.8 ± 0.4	1035.1 ± 0.4	1074.4 ± 0.5
293.15 K, 10000 kPa	806.2 ± 0.8	827 ± 0.7	851.2 ± 0.7	875.3 ± 0.6	903.1 ± 0.6	933 ± 0.5	966.9 ± 0.4	1000.3 ± 0.4	1039.5 ± 0.4	1078.6 ± 0.5
293.15 K, 20000 kPa	813.9 ± 1	835 ± 1	859.6 ± 0.8	883.9 ± 0.8	911.8 ± 0.6	941.8 ± 0.5	975.7 ± 0.4	1009 ± 0.4	1048 ± 0.5	1086.9 ± 0.6
293.15 K, 30000 kPa	821.3 ± 1.3	842.7 ± 1.2	867.5 ± 1	892 ± 0.9	920 ± 0.7	950 ± 0.6	983.8 ± 0.4	1017.1 ± 0.4	1055.8 ± 0.6	1094.5 ± 0.8
293.15 K, 40000 kPa	828.5 ± 1.5	850.2 ± 1.3	875.2 ± 1.2	899.8 ± 1	928 ± 0.8	958 ± 0.6	991.8 ± 0.4	1025 ± 0.5	1063.5 ± 0.7	1101.9 ± 1
298.15 K, 100 kPa	792.3 ± 0.5	812.5 ± 0.5	836.3 ± 0.5	860 ± 0.5	887.4 ± 0.5	917 ± 0.5	950.8 ± 0.4	984.2 ± 0.4	1023.2 ± 0.4	1063.2 ± 0.4
298.15 K, 5000 kPa	796.9 ± 0.7	817.3 ± 0.6	841.3 ± 0.6	865.1 ± 0.6	892.6 ± 0.5	922.2 ± 0.5	956 ± 0.4	989.4 ± 0.4	1028.2 ± 0.4	1068 ± 0.5
298.15 K, 10000 kPa	801.2 ± 0.8	821.8 ± 0.7	846 ± 0.7	870 ± 0.6	897.5 ± 0.6	927.1 ± 0.5	960.8 ± 0.4	994.2 ± 0.4	1032.8 ± 0.4	1072.4 ± 0.5
298.15 K, 20000 kPa	809.2 ± 1.1	830.2 ± 1	854.6 ± 0.9	878.8 ± 0.8	906.5 ± 0.7	936.1 ± 0.5	969.8 ± 0.4	1003.1 ± 0.4	1041.5 ± 0.5	1080.8 ± 0.6
298.15 K, 30000 kPa	816.5 ± 1.3	837.8 ± 1.2	862.5 ± 1	887 ± 0.9	914.8 ± 0.7	944.5 ± 0.6	978.2 ± 0.4	1011.4 ± 0.4	1049.7 ± 0.6	1088.7 ± 0.8
298.15 K, 40000 kPa	823.2 ± 1.5	844.8 ± 1.4	869.8 ± 1.2	894.5 ± 1	922.5 ± 0.8	952.3 ± 0.6	986.1 ± 0.4	1019.3 ± 0.4	1057.4 ± 0.7	1096.2 ± 1
303.15 K, 100 kPa	786.9 ± 0.5	806.9 ± 0.5	830.4 ± 0.5	854.1 ± 0.5	881.2 ± 0.5	910.1 ± 0.5	944.1 ± 0.4	977.4 ± 0.4	1015.8 ± 0.4	1056.5 ± 0.4
303.15 K, 5000 kPa	791.4 ± 0.7	811.7 ± 0.6	835.4 ± 0.6	859.2 ± 0.6	886.4 ± 0.5	915.4 ± 0.5	949.3 ± 0.5	982.6 ± 0.4	1020.9 ± 0.4	1061.3 ± 0.5
303.15 K, 10000 kPa	796 ± 0.8	816.5 ± 0.8	840.4 ± 0.7	864.4 ± 0.6	891.6 ± 0.6	920.6 ± 0.5	954.5 ± 0.5	987.7 ± 0.4	1025.8 ± 0.4	1065 ± 0.5
303.15 K, 20000 kPa	804.5 ± 1.1	825.3 ± 1	849.5 ± 0.9	873.8 ± 0.8	901.2 ± 0.7	930.3 ± 0.6	964.1 ± 0.5	997.1 ± 0.4	1035 ± 0.5	1074.7 ± 0.6
303.15 K, 30000 kPa	812.1 ± 1.3	833.4 ± 1.2	857.9 ± 1.1	882.3 ± 0.9	909.9 ± 0.8	939.1 ± 0.6	972.8 ± 0.5	1005.8 ± 0.4	1043.6 ± 0.5	1082.9 ± 0.7
303.15 K, 40000 kPa	819 ± 1.6	840.7 ± 1.4	865.4 ± 1.2	890.1 ± 1	917.8 ± 0.8	947.2 ± 0.6	980.9 ± 0.4	1013.8 ± 0.4	1051.4 ± 0.6	1090.4 ± 0.9
308.15 K, 100 kPa	781.2 ± 0.6	801.4 ± 0.5	824.4 ± 0.5	847.9 ± 0.5	874.8 ± 0.5	903.4 ± 0.5	936.9 ± 0.5	969.7 ± 0.4	1008.6 ± 0.4	1049.8 ± 0.4
308.15 K, 5000 kPa	786.1 ± 0.7	806.5 ± 0.7	829.7 ± 0.6	853.4 ± 0.6	880.3 ± 0.5	908.9 ± 0.5	942.3 ± 0.5	975.1 ± 0.4	1013.7 ± 0.4	1054.6 ± 0.4
308.15 K, 10000 kPa	790.8 ± 0.8	811.4 ± 0.8	834.8 ± 0.7	858.6 ± 0.7	885.6 ± 0.6	914.2 ± 0.5	947.7 ± 0.5	980.4 ± 0.4	1018.8 ± 0.4	1059.4 ± 0.5
308.15 K, 20000 kPa	799.5 ± 1.1	820.5 ± 1	844.2 ± 0.9	868.3 ± 0.8	895.5 ± 0.7	924.2 ± 0.6	957.6 ± 0.5	990.2 ± 0.4	1028.4 ± 0.4	1068.5 ± 0.6
308.15 K, 30000 kPa	807.4 ± 1.4	828.7 ± 1.2	852.8 ± 1.1	877.1 ± 1	904.4 ± 0.8	933.3 ± 0.6	966.7 ± 0.5	999.3 ± 0.4	1037.3 ± 0.5	1077 ± 0.7
308.15 K, 40000 kPa	814.6 ± 1.6	836.3 ± 1.4	860.6 ± 1.3	885.2 ± 1.1	912.7 ± 0.9	941.7 ± 0.7	975 ± 0.5	1007.6 ± 0.4	1045.4 ± 0.6	1084.8 ± 0.9
313.15 K, 100 kPa	775.6 ± 0.5	795.8 ± 0.5	818.5 ± 0.5	841.9 ± 0.5	868.6 ± 0.5	896.7 ± 0.4	929.7 ± 0.5	962.3 ± 0.4	1001.1 ± 0.4	1043 ± 0.4
313.15 K, 5000 kPa	780.8 ± 0.7	801.3 ± 0.7	824.1 ± 0.6	847.7 ± 0.6	874.4 ± 0.5	902.6 ± 0.5	935.5 ± 0.5	968 ± 0.4	1006.6 ± 0.4	1048.1 ± 0.4
313.15 K, 10000 kPa	785.6 ± 0.8	806.2 ± 0.8	829.3 ± 0.7	853 ± 0.7	879.8 ± 0.6	908.1 ± 0.5	941 ± 0.5	973.5 ± 0.4	1011.9 ± 0.4	1053 ± 0.5
313.15 K, 20000 kPa	794.8 ± 1.1	815.8 ± 1	839.2 ± 0.9	863.2 ± 0.8	890.2 ± 0.7	918.5 ± 0.6	951.4 ± 0.5	983.8 ± 0.4	1021.8 ± 0.4	1062.3 ± 0.5
313.15 K, 30000 kPa	802.9 ± 1.4	824.2 ± 1.3	848 ± 1.1	872.2 ± 1	899.4 ± 0.8	927.9 ± 0.7	960.8 ± 0.5	993.1 ± 0.4	1030.9 ± 0.5	1071 ± 0.7
313.15 K, 40000 kPa	810.5 ± 1.6	832.1 ± 1.5	856.2 ± 1.3	880.7 ± 1.1	908 ± 0.9	936.7 ± 0.7	969.5 ± 0.5	1001.9 ± 0.3	1039.4 ± 0.5	1079 ± 0.8
